The target in one experiment is α4β2 nAChR. To be noted: cited from earlier work.
The next experiment deals with recombinant α4β2 nAChR. To be noted: recombinant receptor, electrophysiology; ref Ondachi et al., 2016; cited from earlier work.
In experiment [1] the target is T1, AcAChBP (Aplysia californica, UniProt Q8WSF8, A155V/A60V).
T1 construct: made in house; host or cells: Spodoptera frugiperda (Sf9) cells, baculovirus (Bac-to-Bac)
Put plainly: Kd determination by biolayer interferometry (BLI) on immobilized AcAChBP. It is filed as binding. To be noted: 25°C, values with standard errors. Here is the method:
The K d values of compounds 1–6 were determined using an Octet RED system (Forté-Bio). AcAChBP (0.5 mg ml^−1 in buffer A) was immobilized on Ni^2+–NTA sensors for 600 s, followed by the removal of non-immobilized protein (600 s) and baseline stabilization (120 s). Association and dissociation measurements were obtained at 25°C for six concentrations of each compound (1.7–410 nM) diluted in buffer A plus 1% DMSO. BLI assays were conducted with a baseline measurement in buffer (60 s), an association measurement in the well containing the compound (120 s) and a dissociation measurement in buffer (120 s). Data processing and analysis were performed with Octet RED Data Analysis version 7.1 (Forté-Bio), where the background response of immobilized AcAChBP in buffer was subtracted.

The next experiment deals with homomeric α7 nAChR. To be noted: ref Ondachi et al., 2016, cited from earlier work; for agonist/antagonist effect on α7 nAChR: homomeric α7.
Experiment [2] concerns nicotine-induced antinociception. To be noted: in vivo; ref Ondachi et al., 2016; cited from earlier work.
Experiment [3] addresses T1, AcAChBP. The arrangement: method as in Hansen et al., 2005. Particulars: read-out: AcAChBP, Kd; tryptophan fluorescence-quenching assay; ref Hansen et al., 2005; cited from earlier work.
In a further experiment the test system is recombinant α3β4 nAChR. To be noted: recombinant receptor, electrophysiology; ref Ondachi et al., 2016; cited from earlier work.
The target in experiment [4] is T1, AcAChBP. Particulars: read-out: AcAChBP, Kd; isothermal titration calorimetry; ref Rucktooa et al., 2012; cited from earlier work.
Where [5] appears, read: [3H]-epibatidine competition assay, values with standard errors, ref Ondachi et al., 2016.

Values joined by “and” are separate entries in the source; they are usually repeats but may differ in a detail not shown here. Equal values may be shown once. Read-outs that look alike come from different tables or passages of the source.

T1 sequence (Q8WSF8 entry or part of it A60V/A155V): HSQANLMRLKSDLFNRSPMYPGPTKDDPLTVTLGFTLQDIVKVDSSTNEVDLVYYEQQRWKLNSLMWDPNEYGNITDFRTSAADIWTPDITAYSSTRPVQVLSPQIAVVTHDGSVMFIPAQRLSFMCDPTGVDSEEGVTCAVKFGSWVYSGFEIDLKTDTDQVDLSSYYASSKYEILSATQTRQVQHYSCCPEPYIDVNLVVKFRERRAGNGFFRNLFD

With `NC(=O)c1ccc(-c2cc(C3CC4CCC3N4)cnc2F)cc1` (centres unmarked) [Compound 1], the Ki on α4β2 nAChR is 0.12 ± 0.02 nM. In addition, in the experiment with recombinant α4β2 nAChR, the “agonist activity on α4β2 nAChR” value is on record as “mixed partial agonists”. Further, at AcAChBP [1], the Kd amounted to 9.8 ± 0.03 nM. Besides, in the experiment with homomeric α7 nAChR, the “agonist/antagonist effect on α7 nAChR” value is reported as “agonists”.
With `NC(=O)c1ccnc(-c2cc(C3CC4CCC3N4)cnc2F)c1` (centres unmarked) [Compound 2], at α4β2 nAChR (setting [5]), the Ki is 0.28 ± 0.01 nM. Also, at AcAChBP [1], the “AcAChBP, Kd” value is on record as “lowest affinity” and the Kd is 60 ± 0.14 nM. Moreover, the “agonist/antagonist effect on α7 nAChR” value in the experiment with homomeric α7 nAChR is listed as “only an antagonist”. Also, the “antagonism of the antinociceptive action of nicotine” value in experiment [2] is given as “a potency approaching that of varenicline”.
As to `NC(=O)c1ccc(-c2cc(C3CC4CCC3N4)cnc2F)nc1` (centres unmarked) [Compound 3], on α4β2 nAChR (setting [5]), the Ki was 0.94 ± 0.07 nM. Further, the “agonist activity on α4β2 nAChR” value in the experiment with recombinant α4β2 nAChR is reported as “mixed partial agonists”. The molecule also registered a Kd at AcAChBP [1] of 29 ± 0.05 nM. The “agonist/antagonist effect on α7 nAChR” value with homomeric α7 nAChR is given as “agonists”.
For `NC(=O)c1ccc(-c2cc(C3CC4CCC3N4)cnc2F)cn1` (centres unmarked) [Compound 4], the Ki at α4β2 nAChR (setting [5]) is 0.07 ± 0.002 nM. On AcAChBP [1], this molecule registered a Kd of 33 ± 0.08 nM. Also, the “subtype selectivity α4β2 over α7” value in the experiment on homomeric α7 nAChR is “selective for α4β2 over α7”.
Regarding `NC(=O)c1cncc(-c2cc(C3CC4CCC3N4)cnc2F)c1` (centres unmarked) [Compound 5], on α4β2 nAChR (setting [5]), the Ki is 0.28 ± 0.03 nM. The Kd on AcAChBP [1] is ~30 nM and 30 nM. Also, in the experiment on homomeric α7 nAChR, the “subtype selectivity α4β2 over α7” value is “selective for α4β2 over α7”.
Turning to `NC(=O)c1cc(-c2cc(C3CC4CCC3N4)cnc2F)ccn1` (centres unmarked) [Compound 6], the Ki on α4β2 nAChR (setting [5]) was 0.67 ± 0.28 nM. This molecule also registered a Kd on AcAChBP [1] of 9.8 ± 0.01 nM.
In the case of `Clc1ccc([C@H]2C[C@@H]3CC[C@H]2N3)cn1` [Epibatidine, (1R,2R,4S)-2-(6-chloro-3-pyridinyl)-7-azabicyclo[2.2.1]heptane], the Kd on AcAChBP [3] was 14 nM. In the experiment with recombinant α3β4 nAChR, the “agonist activity on α3β4 nAChR” value is on record as “full agonist”. For the same molecule, the “agonist activity on α4β2 nAChR” value in the experiment on recombinant α4β2 nAChR is “full agonist”.
As for `CN1CCC[C@H]1c1cccnc1` [Nicotine], on AcAChBP [4], the Kd is 835 nM.
Take `c1cnc2cc3c(cc2n1)[C@@H]1CNC[C@H]3C1` [Varenicline]: on AcAChBP [4], the Kd is 342 nM.

These data come from paper PMC8900824, “Interactions between 2′-fluoro-(carbamoylpyridinyl)deschloroepibatidine analogues and acetylcholine-binding protein inform on potent antagonist activity against nicotinic receptors” (Acta Crystallographica. Section D, Structural Biology, 2022).
